Structures are written as SMILES.

Assay [1] addresses T1, Kv10.1 (Homo sapiens, UniProt O95259).
T1 construct: gene KCNH1
T1 sequence (O95259 1-989): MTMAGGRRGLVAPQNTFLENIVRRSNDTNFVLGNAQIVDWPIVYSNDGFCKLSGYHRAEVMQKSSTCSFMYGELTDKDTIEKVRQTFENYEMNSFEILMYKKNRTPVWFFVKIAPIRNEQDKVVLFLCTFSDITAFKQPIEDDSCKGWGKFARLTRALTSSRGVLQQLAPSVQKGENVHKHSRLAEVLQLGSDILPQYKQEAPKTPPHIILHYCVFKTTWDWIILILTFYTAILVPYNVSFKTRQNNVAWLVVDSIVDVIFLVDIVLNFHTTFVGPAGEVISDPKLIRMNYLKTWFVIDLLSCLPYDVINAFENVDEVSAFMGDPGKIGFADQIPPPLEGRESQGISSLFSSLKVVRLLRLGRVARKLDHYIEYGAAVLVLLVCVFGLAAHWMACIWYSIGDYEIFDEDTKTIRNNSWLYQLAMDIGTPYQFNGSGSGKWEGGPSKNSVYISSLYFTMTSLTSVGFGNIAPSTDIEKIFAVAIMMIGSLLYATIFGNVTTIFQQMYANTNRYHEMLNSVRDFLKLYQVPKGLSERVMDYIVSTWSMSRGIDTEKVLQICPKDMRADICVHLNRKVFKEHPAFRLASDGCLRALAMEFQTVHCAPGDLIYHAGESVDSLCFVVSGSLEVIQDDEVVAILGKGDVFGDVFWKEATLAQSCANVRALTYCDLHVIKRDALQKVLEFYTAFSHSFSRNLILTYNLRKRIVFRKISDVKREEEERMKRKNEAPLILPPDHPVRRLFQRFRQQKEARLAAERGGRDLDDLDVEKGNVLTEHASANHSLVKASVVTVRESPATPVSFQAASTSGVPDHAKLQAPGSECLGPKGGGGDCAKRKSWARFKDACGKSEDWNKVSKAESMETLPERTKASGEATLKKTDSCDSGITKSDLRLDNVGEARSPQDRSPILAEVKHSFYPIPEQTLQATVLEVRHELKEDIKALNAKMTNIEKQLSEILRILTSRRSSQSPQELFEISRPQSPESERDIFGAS
The experiment in a line: FLIPR membrane potential fluorescence assay in HEK-Kv10.[…] cells, single concentration ([…]). It counts as cell-based. The conditions noted are these: read-out: % decrease in response amplitude at 100 μM.

Assay [2] has as its target T1, Kv10.1. Briefly: whole-cell patch-clamp, HEK293 cells stably expressing human Kv10.[…]. In kind it is cell-based.

Turning to `CN(C)C(=O)C(CCN1CCC(O)(c2ccc(Cl)cc2)CC1)(c1ccccc1)c1ccccc1` [LP, loperamide], on Kv10.1 [1], the inhibition at 100 µM was determined as 46.1%.
In turn, `OC1(c2ccc(Cl)c(C(F)(F)F)c2)CCN(CCCC(c2ccc(F)cc2)c2ccc(F)cc2)CC1` [PNFL, penfluridol] showed an IC50 against Kv10.1 [2] of 2700 ± 300 nM.

These data come from publication PMC12440886, “Inhibition of the oncogenic channel Kv10.1 by the antipsychotic drug penfluridol” (Frontiers in Pharmacology, 2025).
